Results published in patent US8563542B2 (Cyclacel Limited, priority 2007, dated 2013).

Tests used:
PLK1 = PLK1 (Homo sapiens, UniProt P53350); assay: PLK1 protein kinase assay (CDC25C phosphorylation, [γ-32P]-ATP); assay type: biochemical; settings: Table 2, PLK1 IC50; class symbols; read-out: PLK1 IC50
AA = target: T1, AA (Homo sapiens, UniProt O14965); assay: AA IC50 (Table 1; no method given); assay type: biochemical; settings: Table 2, AurA IC50; class symbols; read-out: AurA IC50
T1 sequence (O14965 1-403): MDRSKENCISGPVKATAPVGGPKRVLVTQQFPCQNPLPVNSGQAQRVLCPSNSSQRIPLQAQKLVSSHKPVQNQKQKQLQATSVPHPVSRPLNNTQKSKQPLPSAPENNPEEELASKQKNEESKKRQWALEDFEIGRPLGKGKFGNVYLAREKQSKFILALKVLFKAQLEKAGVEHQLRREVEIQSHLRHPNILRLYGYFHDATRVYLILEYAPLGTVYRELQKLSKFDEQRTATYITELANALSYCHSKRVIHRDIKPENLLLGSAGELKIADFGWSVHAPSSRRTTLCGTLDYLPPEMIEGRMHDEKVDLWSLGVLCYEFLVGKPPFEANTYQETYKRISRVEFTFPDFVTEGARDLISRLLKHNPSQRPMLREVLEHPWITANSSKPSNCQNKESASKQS

PLK1, sequence (P53350 whole entry): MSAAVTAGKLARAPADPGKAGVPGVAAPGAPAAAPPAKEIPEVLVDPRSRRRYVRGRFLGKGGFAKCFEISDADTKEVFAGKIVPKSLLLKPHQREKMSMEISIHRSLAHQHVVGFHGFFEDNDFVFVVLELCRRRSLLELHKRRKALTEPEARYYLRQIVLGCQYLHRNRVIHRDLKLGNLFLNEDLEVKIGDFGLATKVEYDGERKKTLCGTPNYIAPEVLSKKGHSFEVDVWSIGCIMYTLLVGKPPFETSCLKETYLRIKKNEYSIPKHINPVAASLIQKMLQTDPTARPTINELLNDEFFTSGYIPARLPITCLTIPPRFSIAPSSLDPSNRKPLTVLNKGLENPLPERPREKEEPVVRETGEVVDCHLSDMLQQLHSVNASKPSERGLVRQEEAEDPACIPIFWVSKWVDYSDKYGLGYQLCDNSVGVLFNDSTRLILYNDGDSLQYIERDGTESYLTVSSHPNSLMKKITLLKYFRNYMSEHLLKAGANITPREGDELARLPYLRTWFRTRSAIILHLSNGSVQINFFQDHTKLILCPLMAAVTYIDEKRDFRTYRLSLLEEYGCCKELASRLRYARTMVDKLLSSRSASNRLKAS

SMILES | IC50 (PLK1) [µM] | IC50 (AA) [µM]
Cc1cc2cc(Nc3ncc4c(n3)N(C3CCCC3)CCC(=O)N4C)ccc2[nH]1 [compound 125, 9-Cyclopentyl-5-methyl-2-(2-methyl-1H-indol-5-ylamino)-5,7,8,9-tetrahydro-pyrimido[4,5-b][1,4]diazepin-6-one] | < 1 | < 0.1
CN1C(=O)CCN(C2CCCC2)c2nc(NCc3cccc4c3OCCO4)ncc21 [compound 128, 9-Cyclopentyl-2-[(2,3-dihydro-benzo[1,4]dioxin-5-ylmethyl)-amino]-5-methyl-5,7,8,9-tetrahydro-pyrimido[4,5-b][1,4]diazepin-6-one] | < 1 | < 10
CN1C(=O)CCN(C2CCCC2)c2nc(NCc3ccc(-c4csnn4)cc3)ncc21 [compound 132, 9-Cyclopentyl-5-methyl-2-(4-[1,2,3]thiadiazol-4-yl-benzylamino)-5,7,8,9-tetrahydro-pyrimido[4,5-b][1,4]diazepin-6-one] | < 10 | < 10
Cc1c(Nc2ncc3c(n2)N(C2CCCC2)CCC(=O)N3C)cccc1C(=O)NC1CCN(C)CC1 [compound 140, 3-(9-Cyclopentyl-5-methyl-6-oxo-6,7,8,9-tetrahydro-5H-pyrimido[4,5-b][1,4]diazepin-2-ylamino)-2-methyl-N-(1-methyl-piperidin-4-yl)-benzamide] | < 10 | < 10
CN1C(=O)CCN(C2CCCC2)c2nc(Nc3cccc(S(=O)(=O)N4CCNCC4)c3)ncc21 [compound 146] | < 10 | < 10
COc1cc(C(=O)NCCCCO)ccc1Nc1ncc2c(n1)N(C1CCCC1)CCC(=O)N2C [compound 151, 4-(9-Cyclopentyl-5-methyl-6-oxo-6,7,8,9-tetrahydro-5H-pyrimido[4,5-b][1,4]diazepin-2-ylamino)-N-(4-hydroxy-butyl)-3-methoxy-benzamide] | < 1 | < 10
CN1C(=O)CCN(C2CCCC2)c2nc(Nc3cccc(CN4CCS(=O)(=O)CC4)c3)ncc21 [compound 177, 9-Cyclopentyl-2-[3-(1,1-dioxo-thiomorpholin-4-ylmethyl)-phenylamino]-5-methyl-5,7,8,9-tetrahydro-pyrimido[4,5-b][1,4]diazepin-6-one] | < 1 | < 0.1
Cc1cc(Nc2ncc3c(n2)N(C2CCCC2)CCC(=O)N3C)ccc1NC(=O)C1CC1 [compound 179, Cyclopropanecarboxylic acid [4-(9-cyclopentyl-5-methyl-6-oxo-6,7,8,9-tetrahydro-5H-pyrimido[4,5-b][1,4]diazepin-2-ylamino)-2-methyl-phenyl]-amide] | < 10 | < 0.1
CN1CCC(NC(=O)c2ccc(Nc3ncc4c(n3)N(C3CCCC3)CCC(=O)N4C)c(F)c2)CC1 [compound 215, 4-(9-Cyclopentyl-5-methyl-6-oxo-6,7,8,9-tetrahydro-5H-pyrimido[4,5-b][1,4]diazepin-2-ylamino)-3-fluoro-N-(1-methyl-piperidin-4-yl)-benzamide] | < 0.1 | < 10
CN1C(=O)C2(CC2)CN(C2CCCC2)c2nc(Nc3ccc4[nH]ncc4c3)ncc21 [compound 227, 9-Cyclopentyl-2-(1H-indazol-5-ylamino)-5-methyl-5,7,8,9-tetrahydro-pyrimido[4,5-b][1,4]diazepin-3,1′-cyclopropane-6-one] | < 0.1 | < 1
Cc1cc(Nc2ncc3c(n2)N(C2CCCC2)CCC(=O)N3C)ccc1NC(=O)C(C)(C)C [compound 287, N-[4-(9-Cyclopentyl-5-methyl-6-oxo-6,7,8,9-tetrahydro-5H-pyrimido[4,5-b][1,4]diazepin-2-ylamino)-2-methyl-phenyl]-2,2-dimethyl-propionamide] | < 10 | < 0.1
CN1C(=O)CCN(C2CCCC2)c2nc(Nc3ccc4c(c3)C=CS4(=O)=O)ncc21 [compound 289, 9-Cyclopentyl-2-(1,1-dioxo-1H-1lambda*6*- benzo[b]thiophen-5-ylamino)-5-methyl-5,7,8,9-tetrahydro-pyrimido[4,5-b][1,4]diazepin-6-one] | < 1 | < 0.1
Cc1ccc(N2CCC(=O)N(C)c3cnc(Nc4ccc5c(c4)CS(=O)(=O)C5)nc32)cc1 [compound 290, 2-(2,2-Dioxo-2,3-dihydro-1H-2lambda*6*- benzo[c]thiophen-5-ylamino)-5-methyl-9-p-tolyl-5,7,8,9-tetrahydro-pyrimido[4,5-b][1,4]diazepin-6-one] | < 10 | < 0.1

Results, then the compound that gave them:

IC50 (PLK1) [µM] | IC50 (AA) [µM] | SMILES
< 10 | < 1 | CN1C(=O)CCN(C2CCCC2)c2nc(Nc3ccc4cc[nH]c4c3)ncc21 [compound 130, 9-Cyclopentyl-2-(1H-indo1-6-ylamino)-5-methyl-5,7,8,9-tetrahydro-pyrimido[4,5-b][1,4]diazepin-6-one]
< 10 | < 0.1 | Cc1cccc(Nc2ncc3c(n2)N(C2CCCC2)CCC(=O)N3C)c1 [compound 137, 9-Cyclopentyl-5-methyl-2-m-tolylamino-5,7,8,9-tetrahydro-pyrimido[4,5-b][1,4]diazepin-6-one]
< 10 | < 1 | COc1cccc(Nc2ncc3c(n2)N(C2CCCC2)CCC(=O)N3C)c1 [compound 138, 9-Cyclopentyl-2-(3-methoxy-phenylamino)-5-methyl-5,7.8,9-tetrahydro-pyrimido[4,5-b][1,4]diazepin-6-one]
< 1 | < 0.1 | CN1C(=O)CCN(C2CCCC2)c2nc(Nc3ccc4[nH]ncc4c3)ncc21 [compound 139, 9-Cyclopentyl-2-(1H-indazol-5-ylamino)-5-methyl-5,7,8,9-tetrahydro-pyrimido[4,5-b][1,4]diazepin-6-one]
< 10 | < 0.1 | CN1C(=O)CCN(C2CCCC2)c2nc(Nc3ccc(CCC(=O)O)cc3)ncc21 [compound 170, 3-[4-(9-Cyclopentyl-5-methyl-6-oxo-6,7,8,9-tetrahydro-5H-pyrimido[4,5-b][1,4]diazepin-2-ylamino)-phenyl]-propionic acid]
< 10 | < 0.1 | CC(=O)Nc1ccc(Nc2ncc3c(n2)N(C2CCCC2)CCC(=O)N3C)cc1 [compound 171, N-[4-(9-Cyclopentyl-5-methyl-6-oxo-6,7,8,9-tetrahydro-5H-pyrimido[4,5-b][1,4]diazepin-2-ylamino)-phenyl]-acetamide]
< 10 | < 0.1 | CN1C(=O)CCN(C2CCCC2)c2nc(Nc3ccc(CC(=O)O)cc3)ncc21 [compound 172, [4-(9-Cyclopentyl-5-methyl-6-oxo-6,7,8,9-tetrahydro-5H-pyrimido[4,5-b][1,4]diazepin-2-ylamino)-phenyl]-acetic acid]
< 10 | < 0.1 | CN1C(=O)CCN(C2CCCC2)c2nc(Nc3ccc4c(c3)CC(=O)N4)ncc21 [compound 173, 9-Cyclopentyl-5-methyl-2-(2-oxo-2,3-dihydro-1H-indo1-5-ylamino)-5,7,8,9-tetrahydro-pyrimido[4,5-b][1,4]diazepin-6-one]
< 1 | < 10 | Cc1cc(C(=O)O)ccc1Nc1ncc2c(n1)N(C1CCCC1)CCC(=O)N2C [compound 174, 4-(9-Cyclopentyl-5-methyl-6-oxo-6,7,8,9-tetrahydro-5H-pyrimido[4,5-b][1,4]diazepin-2-ylamino)-3-methyl-benzoic acid]
< 1 | < 0.1 | CN1C(=O)CCN(C2CCCC2)c2nc(Nc3ccc(C(=O)NC4CC4)cc3)ncc21 [compound 176, 4-(9-Cyclopentyl-5-methyl-6-oxo-6,7,8,9-tetrahydro-5H-pyrimido[4,5-b][1,4]diazepin-2-ylamino)-N-cyclopropyl-benzamide]
< 1 | < 0.1 | CN1C(=O)CCN(C2CCCC2)c2nc(Nc3ccc(NC(=O)C4CC4)cc3)ncc21 [compound 178, Cyclopropanecarboxylic acid [4-(9-cyclopentyl-5-methyl-6-oxo-6,7,8,9-tetrahydro-5H-pyrimido[4,5-b][1,4]diazepin-2-ylamino)-phenyl]-amide]
< 10 | < 0.1 | CN1CCC(NC(=O)CCc2ccc(Nc3ncc4c(n3)N(C3CCCC3)CCC(=O)N4C)cc2)CC1 [compound 180, 3-[4-(9-Cyclopentyl-5-methyl-6-oxo-6,7,8,9-tetrahydro-5H-pyrimido[4,5-b][1,4]diazepin-2-ylamino)-phenyl]-N-(1-methyl-piperidin-4-yl)-propionamide]
< 10 | < 0.1 | CN1CCC(NC(=O)Cc2ccc(Nc3ncc4c(n3)N(C3CCCC3)CCC(=O)N4C)cc2)CC1 [compound 181, 2-[4-(9-Cyclopentyl-5-methyl-6-oxo-6,7,8,9-tetrahydro-5H-pyrimido[4,5-b][1,4]diazepin-2-ylamino)-phenyl]-N-(1-methyl-piperidin-4-yl)-acetamide]
< 10 | < 10 | CCc1cc(C(=O)O)ccc1Nc1ncc2c(n1)N(C1CCCC1)CCC(=O)N2C [compound 192, 4-(9-Cyclopentyl-5-methyl-6-oxo-6,7,8,9-tetrahydro-5H-pyrimido[4,5-b][1,4]diazepin-2-ylamino)-3-ethyl benzoic acid]
< 10 | < 0.1 | CC(=O)Nc1ccc(Nc2ncc3c(n2)N(C2CCCC2)CCC(=O)N3C)cc1C [compound 285, N-[4-(9-Cyclopentyl-5-methyl-6-oxo-6,7,8,9-tetrahydro-5H-pyrimido[4,5-b][1,4]diazepin-2-ylamino)-2-methyl-phenyl]-acetamide]
